Test results taken from patent US20260286254A1, “Bleach Catalyst and Composition Comprising Said Catalyst” (Reckitt Benckiser Vanish B.V., priority 2023, published 2026).
“Also recorded” adds a separate entry of the source.

Assays:
[1] = Kinetic of Tropaeolin-O degradation (UV-Vis absorbance at 430 nm); conditions: statement in text on Table 5
Protocol: These tests were performed following the procedure described in US2012/0205581 A1. Here, Tropaeolin-O was used as sensor molecule to describe the oxidation kinetic of the different catalysts. The catalytic activity of a bleach catalyst is given by the photocatalytic degradation of tropaeolin-O under visible light irradiation.
The kinetic of tropaeolin-O degradation of each sample was determined by measuring the UV-Vis absorbance of the sample every 60 seconds for a total period of 20 minutes at 430 nm. This was done using a UV-Vis Evolution 220 FC-1135 spectrophotometer.
A base detergent system containing tropaeolin-O was prepared by adding to 1000 mL of demineralized water at 40° C., the following ingredients: • 2.92 g of Ariel Gel (as sold in the UK), • 0.088 g of Tropaeolin-O (purity ex. Sigma and used as received), • 1.75 g of Sodium percarbonate (purity: 13.3 wt. % active oxygen), • 0.10 g of bleach activator tetraacetylethylenediamine (TEAD, purity: 92 wt. % active) […]
The 430 nm absorption peak associated to the decomposition of the sensor molecule, i.e., Tropaeolin-O, after addition of a detergent system was followed over time. […] Absorbance in Table 5 is given in absorbance units (a.u.)

[2] = Stability of bleach catalysts: UV-vis absorbance at 445 nm and appearance of alkaline solutions; format: physicochemical; conditions: for Absorption at 445 nm, t = 0 / Absorption at 445 nm, t = 48 h: 0.28 mM in 50 wt. % water/50 wt. % acetone; for Absorption at 445 nm, t = 0 / Appearance, t = 0: pH 11, t = 0; for Absorption at 445 nm, t = 48 h / Appearance, t = 48 h: pH 11, t = 48 h; for Appearance, t = 0 / Appearance, t = 48 h: alkaline conditions
Protocol: The stability of bleach catalysts having the structures shown in Table 1 was determined by preparing solutions of these compounds and measuring their UV-vis absorbance. The person skilled in the art will know how to synthesise the catalysts shown below starting from saccharine.
A solution of each compound was prepared by dissolving each compound in a mixture of 50 wt. % water and 50 wt. % acetone. The concentration of each solution was 0.28 mM.
The pH of each solution was set to 11 by adding few drops of a diluted solution of sodium percarbonate to mimic the alkaline conditions of the final formula.
The UV-vis absorption of each solution was measured just after preparing the samples (t=0), then at 2 h and 48 h using a UV-Vis Evolution 220 FC-1135 spectrophotometer using a 2 mm quartz cuvette.

| SMILES | Absorption at 445 nm, t = 0 [2] | Absorption at 445 nm, t = 48 h [2] | Appearance, t = 0 [2] | activity / performance (tropaeolin-O decomposition), in words [1] | stability of the bleach catalyst, in words [2] | Appearance, t = 48 h [2] |
| --- | --- | --- | --- | --- | --- | --- |
| O=S1(=O)N=C(c2ccccn2)c2ccccc21 [Bleach catalyst 1, 3-(pyridin-2-yl)-1,2-benzisothiazole-1,1-dioxide] | <0.05 | <0.05 | Transparent | enhanced activity | stable | Transparent |
| O=S1(=O)N=C(c2cccnc2)c2ccccc21 [Bleach catalyst 2, 3-(pyridin-3-yl)-1,2-benzisothiazole-1,1-dioxide] | <0.05 | <0.05 | Transparent | enhanced activity | stable | Transparent |
| CC1=NS(=O)(=O)c2ccccc21 [Bleach catalyst A, 3-methyl-1,2-benzisothiazole-1,1-dioxide] | <0.05 | 0.37 | Transparent |  |  | coloured/yellow; also recorded: Yellowing |

Now from value to compound, other results behind:

| Absorption at 445 nm, t = 0 [2] | Absorption at 445 nm, t = 48 h [2] | Appearance, t = 0 [2] | SMILES | activity / performance (tropaeolin-O decomposition), in words [1] | stability of the bleach catalyst, in words [2] | Appearance, t = 48 h [2] |
| --- | --- | --- | --- | --- | --- | --- |
| <0.05 | <0.05 | Transparent | O=S1(=O)N=C(c2ccccc2)c2ccccc21 [Bleach catalyst B, 3-phenyl-1,2-benzisothiazole-1,1-dioxide] |  |  | Transparent |
| <0.05 | <0.05 | Transparent | CC(C)(C)C1=NS(=O)(=O)c2ccccc21 [Bleach catalyst C, 3-tert-butyl-1,2-benzisothiazole-1,1-dioxide] |  |  | Transparent |
| <0.05 | 0.07 | Transparent | CCCCCCCCCCCCC1=NS(=O)(=O)c2ccccc21 [Bleach catalyst D, 3-lauryl-1,2-benzisothiazole-1,1-dioxide] |  |  | coloured/yellow; also recorded: Yellowing |
